Measured values published in PubChem BioAssay AID844 (SRMLSC, 2007).
Activity calls are given as the source filed them. How the calls were made is not given here.

Test system: MRP1 cells, doxorubicin viability shift, 10 uM compound
Experiment: doxorubicin EC50 increase in MRP-1 cells, dose response, cell-based, doxorubicin EC50 shift (AID 844)
Conditions: for EC50: measured here: doxorubicin EC50 with compound

## Cc1ccc(-c2cc(C(F)F)nc(NCc3cccnc3)n2)cc1
  fold increase in Dox EC50: 0.52 (inactive)
  EC50: 2.81 µM

## Cc1noc(/C=C/N(C)C)c1S(=O)(=O)N1CCCC(C(=O)NC2CCCCC2)C1 (stereo not drawn)
  fold increase in Dox EC50: 0.97 (inactive)
  EC50: 5.23 µM

## CC(C)(CNC(=O)/C=C/c1ccc(F)cc1)CNC(=O)/C=C/c1ccc(F)cc1
  fold increase in Dox EC50: 0.38 (inactive)
  EC50: 2.07 µM

## Cc1nc(=O)c(-c2ccccc2)c(C)n1-c1ccc(C(=O)O)cc1
  fold increase in Dox EC50: 1.3 (inactive)
  EC50: 7.02 µM

## CCOC(=O)c1cnn(-c2ccccn2)c1N
  fold increase in Dox EC50: 0.92 (inactive)
  EC50: 4.94 µM

## COc1ccc(-n2c(C)nc(=O)c(-c3ccccc3)c2C)cc1
  fold increase in Dox EC50: 0.83 (inactive)
  EC50: 4.47 µM

## NC(=O)C1(N2CCCCC2)CCN(C(=O)c2cccn3c(=O)c4cc(Cl)ccc4nc23)CC1
  fold increase in Dox EC50: 0.7 (inactive)
  EC50: 3.79 µM

## CCOC(=O)c1cc(-c2ccccc2)sc1NC(=O)C(C)Sc1nnc(N)s1 (stereo not drawn)
  fold increase in Dox EC50: 0.73 (inactive)
  EC50: 3.92 µM

## COc1ccc(Cc2nnc(NC(=O)c3c(-c4ccccc4)noc3C)s2)cc1OC
  fold increase in Dox EC50: 0.52 (inactive)
  EC50: 2.79 µM

## CCn1c(C)cc(/C=C2\NC(=O)N(Cc3ccc(Cl)cc3)C2=O)c1C
  fold increase in Dox EC50: 1.14 (inactive)
  EC50: 6.15 µM

## Cc1c(C(=O)OC(C)C)sc(N)c1C(=O)OC(C)C
  fold increase in Dox EC50: 0.94 (inactive)
  EC50: 5.08 µM

## O=C(CCNC(=O)Cn1ccc2ccccc2c1=O)NCCc1ccccc1Cl
  fold increase in Dox EC50: 1.14 (inactive)
  EC50: 6.15 µM

## CCOC(=O)C1=C(C)Nc2sc(C(=O)c3ccc(C)cc3)c(N)c2C1c1ccc(C(=O)OC)cc1 (stereo not drawn)
  fold increase in Dox EC50: 0.36 (inactive)
  EC50: 1.96 µM

## CCCNC(=O)c1oc2ccc3c(c2c1C)C(=O)CC(C)(C)O3
  fold increase in Dox EC50: 0.84 (inactive)
  EC50: 4.55 µM

## COc1ccc(-c2ocnc2C(=O)Nc2ccccc2N2CCCCC2)cc1
  fold increase in Dox EC50: 0.81 (inactive)
  EC50: 4.37 µM

## O=C(NCCc1ccc(Cl)cc1)c1cnc2n(c1=O)CCS2
  fold increase in Dox EC50: 0.66 (inactive)
  EC50: 3.55 µM

## Cc1cccc(N2CCN(C(=O)Cc3ccc(Br)cc3)CC2)c1C
  fold increase in Dox EC50: 0.95 (inactive)
  EC50: 5.11 µM

## COc1ccc(OC)c(-c2csc(NC(=O)C3c4ccccc4Oc4ccccc43)n2)c1
  fold increase in Dox EC50: 0.96 (inactive)
  EC50: 5.16 µM

## C/C(=N\NC(=O)c1cccc(S(=O)(=O)Nc2cccc(Cl)c2)c1)c1cccs1
  fold increase in Dox EC50: 0.65 (inactive)
  EC50: 3.49 µM

## CCOC(=S)NC(=O)c1sc2ccccc2c1Cl
  fold increase in Dox EC50: 1.32 (inactive)
  EC50: 7.13 µM

## Cc1c(C(=O)OC2CCC(C)CC2)[nH]c2c1C(=O)CCC2 (stereo not drawn)
  fold increase in Dox EC50: 0.93 (inactive)
  EC50: 5.01 µM

## COc1ccc(-c2nn(-c3ccccc3)cc2C(=O)Nc2nc(CC(C)=O)ns2)cc1
  fold increase in Dox EC50: 0.99 (inactive)
  EC50: 5.32 µM

## COc1ccc(CN=C2NC(=O)CC(C(=O)Nc3ccccc3C)S2)cc1 (stereo not drawn)
  fold increase in Dox EC50: 1.16 (inactive)
  EC50: 6.24 µM

## CC1CC(C)CN(c2ncnc3c2cnn3-c2ccc(Cl)cc2)C1 (stereo not drawn)
  fold increase in Dox EC50: 0.35 (inactive)
  EC50: 1.89 µM

## O=C1[C@@H]2[C@H](Cc3ccc(O)cc3)N[C@]3(C(=O)Nc4ccccc43)[C@@H]2C(=O)N1c1ccc(F)cc1
  fold increase in Dox EC50: 1.46 (inactive)
  EC50: 7.88 µM

## CC1CCN(c2ncnc3c2cnn3-c2ccccc2)CC1
  fold increase in Dox EC50: 0.31 (inactive)
  EC50: 1.65 µM

## Cc1ccc(CCNC(=O)C2CCCN2S(=O)(=O)c2ccc3c(c2)CCC(=O)N3)cc1 (stereo not drawn)
  fold increase in Dox EC50: 0.64 (inactive)
  EC50: 3.46 µM

## O=C(CSc1ncn[nH]1)NCCC(c1ccccc1)c1ccccc1
  fold increase in Dox EC50: 0.56 (inactive)
  EC50: 3.03 µM

## C=C(C)C(=O)NC1=NN(c2ccccc2)C(=O)C1
  fold increase in Dox EC50: 1.04 (inactive)
  EC50: 5.63 µM

## Cc1noc(/C=C/N(C)C)c1S(=O)(=O)N1CCCC(C(=O)N2CCCCC2)C1 (stereo not drawn)
  fold increase in Dox EC50: 0.74 (inactive)
  EC50: 3.98 µM

## CC(C)(C)c1ccc(-c2nc(-c3ccncc3)no2)cc1
  fold increase in Dox EC50: 0.77 (inactive)
  EC50: 4.15 µM

## Cc1ccccc1NC(=O)CSC1=NCCN1
  fold increase in Dox EC50: 0.69 (inactive)
  EC50: 3.73 µM

## O=C(NC(=S)Nc1ccccc1N1CCOCC1)c1ccc(-c2cccc(Cl)c2)o1
  fold increase in Dox EC50: 0.41 (inactive)
  EC50: 2.22 µM

## Cc1ccc(OCc2nnc(SCC(=O)N3c4ccccc4Sc4ccc(Cl)cc43)o2)cc1
  fold increase in Dox EC50: 0.85 (inactive)
  EC50: 4.57 µM

## Cc1ccc(C2=CC(C)(c3ccc(C)cc3)Nc3nc(C(F)(F)F)nn32)cc1 (stereo not drawn)
  fold increase in Dox EC50: 0.94 (inactive)
  EC50: 5.1 µM

## Cc1ccc(-c2noc(C3CCCN(S(=O)(=O)c4ccc5ccccc5c4)C3)n2)o1 (stereo not drawn)
  fold increase in Dox EC50: 1.58
  EC50: 8.55 µM

## Cc1cc(NC(=O)CSc2nc(-c3ccccc3)c(C#N)c(=O)[nH]2)no1
  fold increase in Dox EC50: 1.51
  EC50: 8.14 µM

## CC1=C(C(=O)Nc2ccccc2)C(c2ccc(C)o2)N2C(=O)CSC2=N1 (stereo not drawn)
  fold increase in Dox EC50: 0.84 (inactive)
  EC50: 4.55 µM

## Cc1cccc(OCc2nc(-c3nonc3N)no2)c1C
  fold increase in Dox EC50: 0.78 (inactive)
  EC50: 4.22 µM

## CC(C)CCOc1ncnc2c1sc1nc3c(cc12)CSC(C)(C)C3
  fold increase in Dox EC50: 0.51 (inactive)
  EC50: 2.76 µM

## CCCOC(=S)NC(=O)c1sc2ccccc2c1Cl
  fold increase in Dox EC50: 1.25 (inactive)
  EC50: 6.75 µM

## CCOC(=O)c1ccc(N2CN=C3SCC(=O)N3C2)cc1
  fold increase in Dox EC50: 0.3 (inactive)
  EC50: 1.6 µM

## O=C(COc1ccc(Cl)cc1)NCc1nnc(SCC(=O)NCc2ccc3c(c2)OCO3)o1
  fold increase in Dox EC50: 1.06 (inactive)
  EC50: 5.74 µM

## Cc1c(C(=O)Nc2nnc(C(F)(F)F)s2)oc2ccccc12
  fold increase in Dox EC50: 2.05
  EC50: 11 µM

## CS(=O)(=O)Nc1nnc(Cc2ccccc2)s1
  fold increase in Dox EC50: 0.75 (inactive)
  EC50: 4.04 µM

## N#Cc1cc2c(nc1SCc1ccc(Cl)cc1)CCCC2
  fold increase in Dox EC50: 1.07 (inactive)
  EC50: 5.75 µM

## CCC(C)Nc1ncnc2c1cnn2Cc1ccc(Cl)cc1 (stereo not drawn)
  fold increase in Dox EC50: 0.84 (inactive)
  EC50: 4.55 µM

## COc1ccc(C(=O)NCc2ccccc2)cc1S(=O)(=O)N1CCCc2ccccc21
  fold increase in Dox EC50: 0.56 (inactive)
  EC50: 3.02 µM

## COc1ccc2cc(-c3cc(C(=O)O)c4ccccc4n3)ccc2c1
  fold increase in Dox EC50: 1.07 (inactive)
  EC50: 5.75 µM

## O=C(Cn1c(=O)c2c(ncn2Cc2ccccc2)n(Cc2ccccc2)c1=O)N1CCc2ccccc21
  fold increase in Dox EC50: 1.07 (inactive)
  EC50: 5.76 µM

## Oc1c(C=C2N=c3ccccc3=N2)sc(=S)n1-c1ccc(F)cc1
  fold increase in Dox EC50: 0.63 (inactive)
  EC50: 3.39 µM

## C[C@H](C(=O)C=[N+]=[N-])N1C(=O)c2ccccc2C1=O
  fold increase in Dox EC50: 0.56 (inactive)
  EC50: 3.04 µM

## COc1cc(S(=O)(=O)Nc2cccc(C)c2)ccc1NC(=O)c1ccncc1
  fold increase in Dox EC50: 0.6 (inactive)
  EC50: 3.26 µM

## Cn1cc(Br)c(C(=O)NNC(=O)c2ccc(Br)cc2)n1
  fold increase in Dox EC50: 0.98 (inactive)
  EC50: 5.26 µM
